In brackets after ≈: the same amount, converted by molar mass.
How the values were obtained:
Streptococcus sp. = assay: In vitro antibacterial evaluation: minimum inhibitory concentration (MIC), broth dilution method; format: cell-based
Procedure, shortened: (§1)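 Susceptibility determined by NCCLS-recommended broth dilution (M7-A2), Muller-Hinton II […]. Concentration span 64-0.06 μg/mL, inoculum 5×10^5 CFU/mL. Isolates include strains resistant to methicillin, penicillin and/or vancomycin.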

Escherichia coli = assay: as above; format: cell-based; details: for MIC Escherichia coli (GC 4560): strain GC 4560; for MIC Escherichia coli (GC 4559): strain GC 4559
Procedure, shortened: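 First, organisms are seeded at 5×10^5 CFU/mL into Muller-Hinton II […]. Next, antibiotic is applied across 64-0.06 μg/mL by broth dilution (NCCLS M7-A2). Finally, the lowest inhibitory concentration is recorded as MIC.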

[1] = tested on: Staphylococcus aureus-SMITH (GC 4543); assay: Acute lethal infection in mice (ED50); format: in vivo; details: female CD-1 mice, intraperitoneal challenge, intravenous dose 30 min. after infection, 7 day survival ratios
Experimental: The therapeutic effects of glycopeptide antibiotics of Formula I are determined against acute lethal infections with S. aureus (strain Smith), a penicillin resistant strain of S. pneumoniae (strain GC 1894), and a vancomycin resistant strain of E. fecalis (strain GC 6189 and GC 2246). Female mice, CD-1 (Charles River Laboratories), 20 +1-2 gm, are challenged by intraperitoneal injection of sufficient bacteria (suspended in Trypticase Soy Broth or hog gastric mucin) to kill non-treated controls within 24-48 hr. Antibacterial agents, contained in 0.2 mL of saline or 5% dextrose solution, are administered intravenously 30 min. after infection. Five mice are treated at each dose level. The 7 day survival ratios from 3 separate tests are pooled for calculation of median effective dose (ED50).

Enterococcus sp. = assay: In vitro antibacterial evaluation: minimum inhibitory concentration (MIC), broth dilution method; format: cell-based; details: for MIC Enterococcus faecalis (ATCC 29212): strain ATCC 29212; for MIC Enterococcus faecalis (GC 4552): strain GC 4552
Procedure, shortened: as §1

Staphylococcus sp. = assay: as above; format: cell-based; details: for MIC Coagulase Negative Staphylococcus (GC 4537): strain GC 4537; for MIC Coagulase Negative Staphylococcus (GC 4538): strain GC 4538; for MIC Coagulase Negative Staphylococcus (GC 4547): strain GC 4547; for MIC Staphylococcus aureus-SMITH (GC 4536): strain SMITH GC 4536
Procedure, shortened: as §1

[2] = broth dilution, 18 hours at 35° C.

Structure (SMILES)	MIC Streptococcus pneumoniae (GC 1894) (Streptococcus sp.; Streptococcus pneumoniae (GC 1894), broth dilution, 18 hours at 35° C.) [µg/mL]	MIC Streptococcus pneumoniae (GC 1894) (Streptococcus sp.; strain GC 1894) [µg/mL]	MIC Escherichia coli (GC 4560) (Escherichia coli) [µg/mL]	median effective dose (ED50), Staphylococcus aureus-SMITH (GC 4543) [1]	MIC Enterococcus faecalis (GC 2242) (Enterococcus sp.; Enterococcus faecalis (GC 2242), broth dilution, 18 hours at 35° C.) [µg/mL]	MIC Enterococcus faecalis (ATCC 29212) (Enterococcus sp.) [µg/mL]	MIC Enterococcus faecalis (GC 2242) (Enterococcus sp.; strain GC 2242) [µg/mL]	MIC Enterococcus faecalis (GC 4552) (Enterococcus sp.) [µg/mL]	MIC Staphylococcus aureus (ATCC 29213) (Staphylococcus sp.; [2]) [µg/mL]	MIC Staphylococcus aureus (GC 1131) (Staphylococcus sp.; [2]) [µg/mL]	MIC Staphylococcus aureus (GC 4535) (Staphylococcus sp.; [2]) [µg/mL]	MIC Staphylococcus aureus SMITH (GC 4536) (Staphylococcus sp.; [2]) [µg/mL]	MIC Coagulase Negative Staphylococcus (GC 4537) (Staphylococcus sp.) [µg/mL]	MIC Coagulase Negative Staphylococcus (GC 4538) (Staphylococcus sp.) [µg/mL]	MIC Coagulase Negative Staphylococcus (GC 4547) (Staphylococcus sp.) [µg/mL]	MIC Staphylococcus aureus-SMITH (GC 4536) (Staphylococcus sp.; [2]) [µg/mL]	MIC Escherichia coli (GC 4559) (Escherichia coli) [µg/mL]	MIC Coagulase Negative Staphylococcus (GC 4537) (Staphylococcus sp.; [2]) [µg/mL]	MIC Coagulase Negative Staphylococcus (GC 4538) (Staphylococcus sp.; [2]) [µg/mL]	MIC Coagulase Negative Staphylococcus (GC 4547) (Staphylococcus sp.; [2]) [µg/mL]
CC(c1ccccc1)C1NC(=O)CNC(=O)C(CO)NC(=O)C(CC2CN(Cc3ccccc3)C(=NCc3ccccc3)N2C2OC(CO)C(O)C(O)C2O)NC(=O)C(CC2CN(Cc3ccccc3)C(=NCc3ccccc3)N2Cc2ccccc2)NC(=O)C(Cc2ccc(OC3OC(CO)C(OC4OC(CO)C(O)C(O)C4O)C(O)C3O)cc2)NC1=O (stereo not drawn) [Example 73, Cyclo[3-[1,3-benzyl-2-(benzylimino)imidazolidin-4-yl]alanyl-3-[1-benzyl-2-(benzylimino)-3-hexopyranosylimidazolidin-4-yl]alanylserylglycyl-β-methylphenylalanyl-O-(4-O-hexopyranosylhexopyranosyl)tyrosyl]]	64 (≈ 37.3 µM)	64 (≈ 37.3 µM)	16 (≈ 9.34 µM)	>8	–	–	–	–	–	–	–	–	–	–	–	–	–	–	–	–
CCCCCC(=O)OCC1OC(OC2C(CO)OC(Oc3ccc(CC4NC(=O)C(C(C)c5ccccc5)NC(=O)CNC(=O)C(CO)NC(=O)C(C(O)C5CNC(=N)N5C5OC(CO)C(O)C(O)C5O)NC(=O)C(C(O)C5CNC(=N)N5)NC4=O)cc3)C(O)C2O)C(O)C(O)C1O (stereo not drawn) [Example 95b, Cyclo[glycyl-β-methylphenylalanyl-O-[4-O-(6-O-hexanoylhexopyranosyl)hexopyranosyl]-tyrosyl-3-[2-iminoimidazolidin-4-yl)seryl-3-(3-hexopyranosyl-2-iminoimidazolidin-4-yl)-serylseryl]]	–	–	<0.5	4 mg/kg	8 (≈ 5.74 µM)	4 (≈ 2.87 µM)	8 (≈ 5.74 µM)	8 (≈ 5.74 µM)	1 (≈ 0.718 µM)	1 (≈ 0.718 µM)	2 (≈ 1.44 µM)	1 (≈ 0.718 µM)	2 (≈ 1.44 µM)	1 (≈ 0.718 µM)	1 (≈ 0.718 µM)	1 (≈ 0.718 µM)	64 (≈ 45.9 µM)	–	–	–
CCCCCCC(=O)OCC1OC(OC2C(CO)OC(Oc3ccc(CC4NC(=O)C(C(C)c5ccccc5)NC(=O)CNC(=O)C(CO)NC(=O)C(C(O)C5CNC(=N)N5C5OC(CO)C(O)C(O)C5O)NC(=O)C(C(O)C5CNC(=N)N5)NC4=O)cc3)C(O)C2O)C(O)C(O)C1O (stereo not drawn) [Example 97b, Cyclo[glycyl-β-methylphenylalanyl-O-[4-O-(6-O-heptanoylhexopyranosyl)hexopyranosyl]-tyrosyl-3-(2-iminoimidazolidin-4-yl)seryl-3-(3-hexopyranosyl-2-iminoimidazolidin-4-yl)-serylseryl]]	–	–	1 (≈ 0.711 µM)	8 mg/kg	–	4 (≈ 2.84 µM)	2 (≈ 1.42 µM)	4 (≈ 2.84 µM)	1 (≈ 0.711 µM)	1 (≈ 0.711 µM)	1 (≈ 0.711 µM)	0.5 (≈ 0.355 µM)	1 (≈ 0.711 µM)	1 (≈ 0.711 µM)	1 (≈ 0.711 µM)	0.5 (≈ 0.355 µM)	32 (≈ 22.7 µM)	1 (≈ 0.711 µM)	1 (≈ 0.711 µM)	1 (≈ 0.711 µM)

Reference: US8247211B2, “Glycopeptide antibiotics” (American Cyanamid Company, priority 2001, dated 2012)
